Data reported in PubChem BioAssay (NCI).
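Results reflect a 48-hour exposure of cells in 96-well plates to compound at five concentrations. At the GI50, growth is halved. Definition used: TGI = concentration required for complete inhibition of growth.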

Columns and labels:
Assay in all cases: NCI tumour cell line growth inhibition, 48 h
786-0 renal = tested on: 786-0 renal
A498 renal = tested on: A498 renal
A549 NSCLC = tested on: A549 NSCLC
ACHN renal = tested on: ACHN renal
BT-549 breast = tested on: BT-549 breast
CAKI-1 renal = tested on: CAKI-1 renal
CCRF-CEM leukemia = tested on: CCRF-CEM leukemia
COLO 205 colon = tested on: COLO 205 colon
DU-145 prostate = tested on: DU-145 prostate
EKVX NSCLC = tested on: EKVX NSCLC
HCC-2998 colon = tested on: HCC-2998 colon
HCT-15 colon = tested on: HCT-15 colon
HL-60(TB) leukemia = tested on: HL-60(TB) leukemia
HOP-92 NSCLC = tested on: HOP-92 NSCLC
HS 578T breast = tested on: HS 578T breast
HT29 colon = tested on: HT29 colon
IGROV1 ovarian = tested on: IGROV1 ovarian
K-562 leukemia = tested on: K-562 leukemia
KM12 colon = tested on: KM12 colon
LOX IMVI melanoma = tested on: LOX IMVI melanoma
MALME-3M melanoma = tested on: MALME-3M melanoma
MCF7 breast = tested on: MCF7 breast
MDA-MB-231 breast = tested on: MDA-MB-231 breast
MDA-MB-435 = tested on: MDA-MB-435
MOLT-4 leukemia = tested on: MOLT-4 leukemia
NCI-H226 lung = tested on: NCI-H226 lung
NCI-H23 lung = tested on: NCI-H23 lung
NCI-H460 lung = tested on: NCI-H460 lung
NCI-H522 lung = tested on: NCI-H522 lung
NCI/ADR-RES ovarian = tested on: NCI/ADR-RES ovarian
OVCAR-3 ovarian = tested on: OVCAR-3 ovarian
OVCAR-4 ovarian = tested on: OVCAR-4 ovarian
OVCAR-5 ovarian = tested on: OVCAR-5 ovarian
OVCAR-8 ovarian = tested on: OVCAR-8 ovarian
RPMI-8226 leukemia = tested on: RPMI-8226 leukemia
RXF 393 renal = tested on: RXF 393 renal
SF-268 CNS = tested on: SF-268 CNS
SF-295 CNS = tested on: SF-295 CNS
SF-539 CNS = tested on: SF-539 CNS
SK-MEL-2 melanoma = tested on: SK-MEL-2 melanoma
SK-MEL-28 melanoma = tested on: SK-MEL-28 melanoma
SK-MEL-5 melanoma = tested on: SK-MEL-5 melanoma
SK-OV-3 ovarian = tested on: SK-OV-3 ovarian
SN12C renal = tested on: SN12C renal
SNB-19 CNS = tested on: SNB-19 CNS
SNB-75 CNS = tested on: SNB-75 CNS
SR leukemia = tested on: SR leukemia
SW-620 colon = tested on: SW-620 colon
T-47D breast = tested on: T-47D breast
TK-10 renal = tested on: TK-10 renal
U251 CNS = tested on: U251 CNS
UACC-257 melanoma = tested on: UACC-257 melanoma
UACC-62 melanoma = tested on: UACC-62 melanoma
UO-31 renal = tested on: UO-31 renal

With `CN(C(=O)C1CCCCC1)c1ccccc1I(=O)=O` the GI50 (786-0 renal) was 43.3 µM, the TGI (786-0 renal) was > 100 µM and the GI50 (A498 renal) was 52.1 µM. The TGI (A498 renal) was > 100 µM, the GI50 (A549 NSCLC) was 55.9 µM and the TGI (A549 NSCLC) was > 100 µM. For the same compound, the GI50 (ACHN renal) was 39.4 µM, the TGI (ACHN renal) was > 100 µM and the GI50 (BT-549 breast) was 42.4 µM. The TGI (BT-549 breast) was > 100 µM, the GI50 (CAKI-1 renal) was 36.8 µM and the TGI (CAKI-1 renal) was > 100 µM. For the same compound, the GI50 (CCRF-CEM leukemia) was 17.6 µM, the TGI (CCRF-CEM leukemia) was 38 µM and the GI50 (COLO 205 colon) was 14.6 µM. For the same compound, the TGI (COLO 205 colon) was 29.8 µM, the GI50 (DU-145 prostate) was 55.9 µM and the TGI (DU-145 prostate) was > 100 µM. For the same compound, the GI50 (EKVX NSCLC) was 43.4 µM, the TGI (EKVX NSCLC) was > 100 µM and the GI50 (HCC-2998 colon) was 70.3 µM. The TGI (HCC-2998 colon) was > 100 µM, the GI50 (HCT-15 colon) was 23.3 µM and the TGI (HCT-15 colon) was 59.2 µM. The GI50 (HL-60(TB) leukemia) was 13.5 µM, the TGI (HL-60(TB) leukemia) was 36.8 µM and the GI50 (HOP-92 NSCLC) was 26.1 µM. For the same compound, the TGI (HOP-92 NSCLC) was 67 µM, the GI50 (HS 578T breast) was 52.9 µM and the TGI (HS 578T breast) was > 100 µM. For the same compound, the GI50 (HT29 colon) was 33.8 µM, the TGI (HT29 colon) was > 100 µM and the GI50 (IGROV1 ovarian) was 52.2 µM. For the same compound, the TGI (IGROV1 ovarian) was > 100 µM, the GI50 (K-562 leukemia) was 12.5 µM and the TGI (K-562 leukemia) was 27.4 µM. The GI50 (KM12 colon) was 37.8 µM, the TGI (KM12 colon) was > 100 µM and the GI50 (LOX IMVI melanoma) was 40.2 µM. The TGI (LOX IMVI melanoma) was > 100 µM, the GI50 (MALME-3M melanoma) was 14.6 µM and the TGI (MALME-3M melanoma) was 30.9 µM. The GI50 (MCF7 breast) was 43.7 µM, the TGI (MCF7 breast) was > 100 µM and the GI50 (MDA-MB-231 breast) was 70 µM. For the same compound, the TGI (MDA-MB-231 breast) was > 100 µM, the GI50 (MDA-MB-435) was 41.4 µM and the TGI (MDA-MB-435) was > 100 µM. For the same compound, the GI50 (MOLT-4 leukemia) was 18 µM, the TGI (MOLT-4 leukemia) was 51.8 µM and the GI50 (NCI-H226 lung) was > 100 µM. The TGI (NCI-H226 lung) was > 100 µM, the GI50 (NCI-H23 lung) was 45.2 µM and the TGI (NCI-H23 lung) was > 100 µM. For the same compound, the GI50 (NCI-H460 lung) was 48 µM, the TGI (NCI-H460 lung) was > 100 µM and the GI50 (NCI-H522 lung) was 16.3 µM. For the same compound, the TGI (NCI-H522 lung) was 30.2 µM, the GI50 (NCI/ADR-RES ovarian) was 35.9 µM and the TGI (NCI/ADR-RES ovarian) was > 100 µM. The GI50 (OVCAR-3 ovarian) was 30.5 µM, the TGI (OVCAR-3 ovarian) was > 100 µM and the GI50 (OVCAR-4 ovarian) was 33.2 µM. For the same compound, the TGI (OVCAR-4 ovarian) was > 100 µM, the GI50 (OVCAR-5 ovarian) was 37.2 µM and the TGI (OVCAR-5 ovarian) was > 100 µM. The GI50 (OVCAR-8 ovarian) was 74.8 µM, the TGI (OVCAR-8 ovarian) was > 100 µM and the GI50 (RPMI-8226 leukemia) was 12.9 µM. The TGI (RPMI-8226 leukemia) was 33.7 µM, the GI50 (RXF 393 renal) was 68.5 µM and the TGI (RXF 393 renal) was > 100 µM. For the same compound, the GI50 (SF-268 CNS) was 36.8 µM, the TGI (SF-268 CNS) was > 100 µM and the GI50 (SF-295 CNS) was 36.5 µM. The TGI (SF-295 CNS) was > 100 µM, the GI50 (SF-539 CNS) was 39.2 µM and the TGI (SF-539 CNS) was > 100 µM. For the same compound, the GI50 (SK-MEL-2 melanoma) was > 100 µM, the TGI (SK-MEL-2 melanoma) was > 100 µM and the GI50 (SK-MEL-28 melanoma) was 22.8 µM. It also gave a TGI (SK-MEL-28 melanoma) of 56.9 µM, a GI50 (SK-MEL-5 melanoma) of 20.3 µM and a TGI (SK-MEL-5 melanoma) of 73.8 µM. For the same compound, the GI50 (SK-OV-3 ovarian) was 32.4 µM, the TGI (SK-OV-3 ovarian) was > 100 µM and the GI50 (SN12C renal) was 79.4 µM. The TGI (SN12C renal) was > 100 µM, the GI50 (SNB-19 CNS) was 40.3 µM and the TGI (SNB-19 CNS) was > 100 µM. For the same compound, the GI50 (SNB-75 CNS) was 34.6 µM, the TGI (SNB-75 CNS) was > 100 µM and the GI50 (SR leukemia) was 13.7 µM. The TGI (SR leukemia) was 36.1 µM, the GI50 (SW-620 colon) was 20 µM and the TGI (SW-620 colon) was 44.6 µM. The GI50 (T-47D breast) was 16.4 µM, the TGI (T-47D breast) was 44.2 µM and the GI50 (TK-10 renal) was 27.4 µM. For the same compound, the TGI (TK-10 renal) was > 100 µM, the GI50 (U251 CNS) was 31.3 µM and the TGI (U251 CNS) was > 100 µM. For the same compound, the GI50 (UACC-257 melanoma) was 63.6 µM, the TGI (UACC-257 melanoma) was > 100 µM and the GI50 (UACC-62 melanoma) was 72.4 µM. For the same compound, the TGI (UACC-62 melanoma) was > 100 µM, the GI50 (UO-31 renal) was 51 µM and the TGI (UO-31 renal) was > 100 µM.
